± gives the expanded uncertainty stated by the source.
Assays:
[1] = Molar enthalpy of transition or fusion; conditions: DSC
[2] = DTA

Row | SMILES | Molar enthalpy of transition or fusion ([1]; Crystal) [kcal/mol] | Normal melting temperature ([2]; Crystal) [°C] | Molar enthalpy of transition or fusion ([1]; Metastable crystal) [kcal/mol] | Normal melting temperature ([2]; Metastable crystal) [°C]
1 | CCCCCCCCCCCCCCCCCC(=O)O [octadecanoic acid] | 14.4 ± 1.46 | 69.47 ± 1.1 |  | 
2 | CC(N)=O [ethanamide] | 3.26 ± 0.335 | 80.62 ± 1.1 | 2.78 ± 0.287 | 70.14 ± 1.1

— the NIST ThermoML archive (doi:10.1016/j.jct.2016.11.022)
